Columns and labels:
[1] = target: T1, HIV RT (Human immunodeficiency virus type 1 group M subtype B, UniProt P04585); assay: HIV-RT primer extension assay (chain termination); format: biochemical; details: 1 µM each dNTP
T1 construct: HIV RT (final concentration, 1,200 nM)
Description: The reaction protocol was adapted from previous work. Primers and template used for this assay are described in Fig 8A.
All reagent stocks were in a base assay buffer consisting of 50 mM Tris pH 7.5 and 50 mM NaCl in nuclease-free water. […] Samples were then heated to 95 °C for 10 min prior to storage at −20 °C until being resolved by polyacrylamide gel electrophoresis with 7 M urea.

[2] = Uptake and phosphorylation assay in PBMCs; format: in vitro ADME, human; details: PBMCs incubated with 0.21 nM MK-8527
Description: To determine the amount of MK-8527 phosphorylated forms produced after treatment of PBMCs, uptake and phosphorylation assays were performed. PBMCs were activated with 5 µg/mL PHA in RPMI 1640, 10% FBS, 100 units/mL penicillin, and 100 µg/mL streptomycin at 1.2 × 10^6 cells/mL. All incubations were in a humidified incubator at 37 °C and with 5% CO2. After 3–4 days in culture, media containing PHA were removed by centrifugation at 300g for 10 min. Cells were resuspended at 2 × 10^6 cells/mL in RPMI 1,640, 10% NHS, 100 units/mL penicillin, 100 µg/mL streptomycin, and 20 units/mL IL-2. A total of 7.5 × 10^6 to 2 × 10^7 cells were transferred to a miniature bioreactor tube. […]
The intracellular concentration of MK-8527-TP was determined by an LC–MS/MS assay. […] Quantification was performed by monitoring the transitions of m/z 548.9 to 169.1 for MK-8527-TP. […] The method’s lower limit of quantification was between 1 and 5 nM depending on the assay volumes of cell suspension. Analyte concentrations in cell samples across species were determined from the standard curves using linear regression with 1/×2 weighting.
Concentrations of intracellular phosphorylated forms were expressed in picomoles per 10^6 cells by using the molar concentration of each compound as determined by LC–MS/MS and the number of viable cells included in each 100-µL sample.

In the case of `C#C[C@]1(COP(=O)(O)OP(=O)(O)OP(=O)(O)O)O[C@@H](n2ccc3c(N)nc(Cl)nc32)C[C@@H]1O` [MK-8527-TP], the “Chain termination mechanism (ICT/DCT)” value [1] was “both ICT and DCT occurred” and the “Intracellular MK-8527-TP level by LC–MS/MS” value [2] was “below the limit of quantitation”.
